Source: ChEMBL document CHEMBL6121055, “Strategic Mutations in Designer Native Peptides Combat NLRP3 Inflammasome Activation in Neurodegenerative Disorders” (J Med Chem, 2025)
Activity calls are given as the source filed them. The calls are words filed in the database; no cut-off is given here. Residues, ends and D or L forms follow the SMILES beside them.

Assays:
N9 [1] = test: Inhibition of NLRP3 inflammasome activation in LPS/ATP-stimulated mouse N9 cells assessed as reduction in caspase-1 mRNA expression by measuring remaining activity at 20 uM by qRT-PCR analysis relative to control; assay type: cell-based
HEK-293T = test: Cytotoxicity against HEK293T cells assessed as reduction in cell viability upto 100 uM measured after 24 hrs by MTT assay; assay type: toxicity, cell-based; conditions: human
N9 [2] = test: Inhibition of NLRP3 inflammasome activation mediated pyroptosis in LPS/amyloid-beta-stimulated mouse N9 cells assessed as reduction in cell death at 5 to 30 uM by MTT assay; assay type: cell-based; conditions: dose 5-30 µM
N9 [3] = test: (§1) Inhibition of NLRP3 inflammasome activation in LPS/amyloid-beta-stimulated mouse N9 cells assessed as inhibition of ASC speck formation preincubated with LPS for 4 hrs followed by compound addition by 30 mins and measured after 16 hrs of amyloid-beta stimulation by DAPI staining based immunofluorescence analysis; assay type: cell-based; conditions: dose 10-20 µM, time 16.5 hrs
[4] = Stability of compound in fetal bovine serum at 100 uM measured after 48 hrs by RP-HPLC analysis; assay type: ADME, cell-free, Bos taurus; conditions: cattle
N9 [5] = test: (§2) Inhibition of NLRP3 inflammasome activation in LPS/ATP-stimulated mouse N9 cells assessed as increase in intracellular potassium level at 10 to 25 uM preincubated with LPS for 4 hrs followed by compound addition for 30 mins and measured after ATP stimulation for 1 hrs by ICP-OES analysis; assay type: cell-based; conditions: dose 10-25 µM, time 1.5 hrs
N9 [6] = test: as §2, with “mitochondrial membrane potential” for “intracellular potassium level at 10 to 25 uM”, “Rhodamine 123 staining based flow cytometric” for “ICP-OES”; assay type: cell-based; conditions: dose 10-30 µM, time 1.5 hrs
N9 [7] = test: as §1, with “LPS/ATP-stimulated” for “LPS/amyloid-beta-stimulated”, “formation at 20 to 30 uM” for “formation”, “45 mins” for “16 hrs”, “ATP” for “amyloid-beta”; assay type: cell-based; conditions: dose 20-30 µM, time 75.0 min
N9 [8] = test: Inhibition of NLRP3 inflammasome activation in LPS/tau-stimulated mouse N9 cells assessed as inhibition of ASC speck formation preincubated with LPS for 4 hrs followed by compound addition by 30 mins and measured after 24 hrs of tau stimulation by DAPI staining based immunofluorescence analysis; assay type: cell-based; conditions: dose 10-20 µM, time 24.5 hrs
[9] = Inhibition of NLRP3 inflammasome activation in LPS/ATP-stimulated mouse N9 cells assessed as inhibition of caspase-1 mRNA expression by qRT-PCR analysis; assay type: cell-based

SMILES: CC[C@H](C)[C@H](NC(=O)[C@H](C)NC(=O)[C@H](C)NC(=O)[C@H](CC(C)C)NC(=O)[C@@H](NC(=O)[C@H](Cc1c[nH]c2ccccc12)NC(=O)[C@@H](N)C(C)C)[C@@H](C)CC)C(=O)N[C@@H](CC(N)=O)C(=O)N[C@@H](CCCNC(=N)N)C(=O)N[C@@H](CCCNC(=N)N)C(=O)O (H-VWILAAINRR-OH)
- Activity (N9 [1]): 15%
- Activity (HEK-293T): Non-toxic
- inhibition (N9 [2]): Active
- inhibition (N9 [3]): Dose-dependent-effect
- Stability [4]: Stable
- inhibition (N9 [5]): Active
- inhibition (N9 [6]): Dose-dependent-effect
- inhibition (N9 [7]): Active
- inhibition (N9 [8]): Dose-dependent-effect
- IC50 [9]: 16.2 µM
